Laboratory results taken from patent US4168313A, “Phthalidyl 2-(3'-trifluoromethyl-anilino)-pyridine-3-carboxylate and its salts” (priority 1978, dated 1979).

How the values were obtained:
gastric epithelium = test: method of Goldemberg, ulceration by pylorus ligature (ulcerogenic effect); assay type: in vivo, Sprague-Dowley rats; details: for ulceration score Increase: increase over control (distilled water) score 2.0, mg/Kg: phenylbutazone 75, acid 47, acetylsalicylic acid 200; for ulceration Score: score 0=no hemorrhagic spots to 6=perforated ulcer, control (distilled water) 2.0, mg/Kg: phenylbutazone 75, acid 47, acetylsalicylic acid 200, phthalidyl ester 69; for ulcerogenic effect (in words): summary statement, b45 relative to the respective acid
Experimental: 2 To compare the effect on ulcer of the new compound regarding to other antiinflammatory drugs, the method of Goldemberg (ulceration by pylorus ligature) (Arzneim. Forsch. (Drug Res.) 26, 3, 1976) to Sprague-Dowley rats (400-600 g of weight), was performed. The ulceration of the gastric epithelium was observed and evaluated in accordance to the following score; 0=no hemorrhagic spots; 1=some isolated hemorrhagic spots; 2=redness of the gastric epithelium; 3=1 to 5 small ulcers with a diameter greater than 3 mm; 6=perforated ulcer.

[1] = tested on: carraghenine-provoked aedema of the paw of rat; test: carraghenine-provoked aedema of the paw of rat (antiinflammatory activity); assay type: in vivo; details: for % AEDEMA INHIBITION 3 hr / % AEDEMA INHIBITION 4 hr: rat paw, TNA 47 mg/Kg, PTP 69 mg/Kg (equivalent to 47 mg of the acid)
Source text: 1 By means of the test involving the carraghenine-provoked aedema of the paw of rat (Winter, C. A., Proceeding Soc. Exp. Biol. Med., III, 544, 1962) the antiinflammatory activities of phthalidyl 2-(3'-trifluormethylanilino)-pyridine-3-carboxylate (PTP) and 2(3'-trifluormethylanilino) nicotinic acid (TNA), were compared.

oral tolerability = assay type: in vivo
[2] = background statement; cited from earlier work
[3] = background statement; cited from earlier work; remark: listed apart in the source

SMILES	ulceration score Increase (gastric epithelium)	ulceration Score (gastric epithelium)	% AEDEMA INHIBITION 3 hr [1]	% AEDEMA INHIBITION 4 hr [1]	antiinflammatory activity compared with the acid (in words) ([1]; relative to 2(3'-trifluormethylanilino) pyridine-3-carboxylic acid)	anti-inflammatory activity (in words) ([1]; summary statement)	ulcerogenic effect (in words) (gastric epithelium)	ulcerogenic effect (in words) (gastric epithelium; listed as phthalidyl ester)	oral tolerability (in words) (oral tolerability)	antiinflammatory activity (in words) [2]	ulcer provocation (in words) [3]
CCCCC1C(=O)N(c2ccccc2)N(c2ccccc2)C1=O [Phenylbutazone]	2.3	4.3	–	–	–	–	–	–	–	–	–
O=C1OC(OC(=O)c2cccnc2Nc2cccc(C(F)(F)F)c2)c2ccccc21 (stereo not drawn) [PTP, phthalidyl 2-(3'-trifluormethylanilino)-pyridine-3-carboxylate]	–	2.0	32%	37.8%	antiinflammatory activity greater than the acid	anti-inflammatory activity	less ulcerogenic than respective acid	without ulcerogenic effect	orally well tolerated	–	–
CC(=O)Oc1ccccc1C(=O)O [Acetylsalicylic acid]	1.9	3.9	–	–	–	–	–	–	–	–	–
O=C(O)c1cccnc1Nc1cccc(C(F)(F)F)c1 [TNA, 2(3'-trifluormethylanilino) nicotinic acid]	1.3	3.3	25.6%	31.8%	–	–	–	–	–	relevant antiinflammatory activity	provoke ulcers
